In paper PMC6749586, “Design, Synthesis, and Anticancer Effect Studies of Iridium(III) Polypyridyl Complexes against SGC-7901 Cells” (Molecules, 2019):

Test system: SGC-7901 cells
Experiment: Annexin V-FITC/PI apoptosis analysis by flow cytometry
Format: cell-based, human
Details: 4.0 µM 1, 15.0 µM 2 or 3; for Early apoptotic cells (EA): 24 h (b62 says 48 h), control 2.84%
Description: A total of 1 mL of SGC-7901 cells at 2 × 10^6 cells/mL was seeded in a six-well plate and incubated overnight in a CO2 incubator at 37 °C. Then, the cells were treated with 1, 2, or 3 for 24 h. After treatment, the cells were harvested, washed three times with ice-cold PBS, and then re-suspended in 195 μL of 1 × Annexin V-FITC binding buffer. Next, 10 μL of PI and 5 μL of Annexin-FITC were sequentially added to each sample, stained in the dark for 20 min, and analyzed by a FACS Calibur flow cytometer ([…] Dickinson & Co., Franklin Lakes, NJ, USA). Annexin-V positive cells were considered apoptotic.

Row | Compound | Percentage including early and late apoptotic cells [%] | Early apoptotic cells (EA) [%]
1 | F[P-](F)(F)(F)(F)F.O=[N+]([O-])c1cc2ccc[n+]3c2c2c1ccc[n+]2[Ir-5]312([c]3ccccc3-c3cccc[n+]31)[c]1ccccc1-c1cccc[n+]12 [Complex 1, [Ir(Hppy)2(NP)]PF6] | 37.07 | 29.9
2 | F[P-](F)(F)(F)(F)F.Nc1c([N+](=O)[O-])c2cccnc2c2ncccc12.[Ir+3].[c-]1ccccc1-c1ccccn1.[c-]1ccccc1-c1ccccn1 [Complex 2, [Ir(Hppy)2(NAP)]PF6] | 35.6 | 14.8
3 | F[P-](F)(F)(F)(F)F.Nc1c(N)c2cccnc2c2ncccc12.[Ir+3].[c-]1ccccc1-c1ccccn1.[c-]1ccccc1-c1ccccn1 [Complex 3, [Ir(Hppy)2(DAP)]PF6] | 41.8 | 13.7
